Data published in patent US12282015B2, “Systems and methods for testing and screening using compound bound substrates” (Cerus Corporation, priority 2016, dated 2025).

Test system: human RBC's
Assay: Binding of compound to RBC substrate and stability of the surface-bound moiety, anti-acridine antibody staining by flow cytometry (MFI)
Assay type: cell-based
Details: at 37° C.; 0.2 mM compound, 2.0 mM GSH, overnight; mAb and polyAb staining
Experimental: A study was performed to assess binding to RBC substrate by the compound 5-220, which is a non-frangible analog of S-303. This study also compared the stability of the surface bound moiety of the 5-220 compound to the stability of a similarly bound frangible S-303. More specifically, glutathione (GSH) quencher and the 5-220 compound were added to human RBC's substrate at concentrations of 2.0 mM and 0.2 mM, respectively, and then incubated overnight at 37° C. or 4° C. For comparison, GSH quencher and the frangible S-303 compound were similarly added to human RBC's at concentrations of 2.0 mM and 0.2 mM, respectively, and incubated overnight at 37° C. or 4° C. Both the non-frangible 5-220 and frangible S-303 compounds comprise an acridine moiety as part of their structures. Following incubation, the GSH/S-220 and GSH/S-303 treated RBC's were stained with either a mouse monoclonal (mAb) or rabbit polyclonal (polyAb) anti-acridine antibody (also at 4° C. or 37° C.), and the samples analyzed for antibody binding by flow cytometry using standard methods (quantitated as MFI). Both the mAb and polyAb anti-acridine antibodies were generated using the compound 5-197 for immunization.

O=C(CCNc1c2ccccc2nc2ccccc12)OCCN(CCCl)CCCl [S-303, β-alanine, N-(acridin-9-yl), 2-[bis(2-chloroethyl)amino]ethyl ester]
stability of binding to RBC's: less stable than 5-220 binding to RBC's
